In ChEMBL document CHEMBL2390860, “Chemical constituents from Nelumbo nucifera leaves and their anti-obesity effects” (Bioorg Med Chem Lett, 2013):
The source made the active and inactive calls. The calls are words filed in the database; no cut-off is given here.

Legend:
[1] = test system: 3T3-L1; assay: Antiobesity activity in mouse 3T3L1 cells assessed as reduction of fat accumulation at 100 uM by oil Red O staining-based ELISA; format: functional, cell-based
[2] = target: T1, Pancreatic triacylglycerol lipase (Sus scrofa) (UniProt P00591); assay: Inhibition of porcine pancreatic lipase using para-nitrophenyl butyrate as substrate at 100 uM by ELISA
T1 sequence (whole entry): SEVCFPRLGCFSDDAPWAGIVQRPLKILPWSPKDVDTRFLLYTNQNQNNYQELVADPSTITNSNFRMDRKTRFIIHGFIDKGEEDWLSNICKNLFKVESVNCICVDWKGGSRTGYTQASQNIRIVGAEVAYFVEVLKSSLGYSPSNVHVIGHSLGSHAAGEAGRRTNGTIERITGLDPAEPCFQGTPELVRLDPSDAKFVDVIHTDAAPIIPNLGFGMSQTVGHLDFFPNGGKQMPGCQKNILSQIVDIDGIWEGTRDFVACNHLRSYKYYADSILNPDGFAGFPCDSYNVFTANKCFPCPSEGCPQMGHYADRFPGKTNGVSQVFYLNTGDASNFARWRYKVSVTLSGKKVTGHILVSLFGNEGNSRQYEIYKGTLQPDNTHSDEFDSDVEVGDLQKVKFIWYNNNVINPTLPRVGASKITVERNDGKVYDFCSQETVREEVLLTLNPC

Row | SMILES | Activity [1] | Lipase inhibition (active/not active) [2]
1 | O=c1c(O[C@@H]2O[C@H](CO)[C@@H](O)[C@H](O)[C@H]2O)c(-c2ccc(O)c(O)c2)oc2cc(O)cc(O)c12 | Active | inactive
2 | CC1=CC(=O)CC(C)(C)[C@@]1(O)/C=C/[C@@H](C)O | inactive | inactive
3 | O=C1c2ccccc2-c2c3c(cc4ccnc1c24)OCO3 | Active | Active
4 | COc1cc(-c2oc3cc(O[C@@H]4O[C@H](CO)[C@@H](O)[C@H](O)[C@H]4O)cc(O)c3c(=O)c2O)ccc1O | Active | inactive
5 | O=C1CC[C@@H]2c3cc(O)c(O)cc3CCN12 | – | Active
6 | CC(=O)/C=C/[C@@]12O[C@]1(C)C[C@@H](O)CC2(C)C | Active | inactive
7 | CC(=O)C=C=C1C(C)(C)C[C@H](O)C[C@]1(C)O | inactive | inactive
8 | CC(=O)/C=C/[C@H]1C(C)=C[C@H](O[C@@H]2O[C@H](CO)[C@@H](O)[C@H](O)[C@H]2O)CC1(C)C | inactive | inactive
9 | O=C1c2c(O)cc(O)cc2O[C@@H](c2ccc(O)c(O)c2)[C@H]1O | Active | Active
10 | O=C(/C=C/c1ccc(O)cc1)NCCc1ccc(O)cc1 | inactive | Active
11 | CC(=O)/C=C/[C@]1(O)[C@@H](C)C[C@@H](O)CC1(C)C | inactive | inactive
12 | Oc1cc(O)c2c(c1)O[C@@H](c1ccc(O)c(O)c1)[C@H](O)C2 | – | Active
13 | O=c1c(O)c(-c2ccc(O)c(O)c2)oc2cc(O)cc(O)c12 | Active | Active
14 | O=C(/C=C\c1ccc(O)cc1)NCCc1ccc(O)cc1 | inactive | Active
15 | CC(=O)/C=C/[C@]12O[C@@]1(C)C[C@@H](O)CC2(C)C | Active | inactive
16 | O=c1cc(-c2ccc(O)c(O)c2)oc2cc(O)cc(O)c12 | Active | Active

Row | SMILES | Activity [1] | Lipase inhibition (active/not active) [2]
17 | O=C1c2c(O)cc(O)cc2O[C@H](c2ccc(O)c(O)c2)[C@H]1O | – | Active
18 | CC(=O)C=C=C1C(C)(C)C[C@H](O)C[C@@]1(C)O | inactive | inactive
19 | CC(=O)/C=C/[C@@]1(O)C(C)=CC(=O)CC1(C)C | inactive | inactive
20 | COc1cc2c3c(c1OC)C1(C=CC(=O)C=C1)C[C@H]3N(C)CC2 | – | Active
21 | CC(=O)/C=C/[C@@]12O[C@]1(C)C[C@@H](O[C@@H]1O[C@H](CO)[C@@H](O)[C@H](O)[C@H]1O)CC2(C)C | inactive | inactive
22 | C[N+]1([O-])CCc2cc3c(c4c2[C@H]1Cc1ccccc1-4)OCO3 (some centres undefined) | Active | Active
23 | COc1cc(/C=C\C(=O)NCCc2ccc(O)cc2)ccc1O | inactive | Active
24 | CC1(C)C[C@@H](O)C[C@@]2(C)OC(=O)C=C12 | inactive | inactive
25 | CC1=CC(=O)CC(C)(C)/C1=C/C[C@H](C)O | inactive | inactive
26 | O=c1c(O[C@@H]2O[C@H](CO)[C@@H](O)[C@H](O)[C@H]2O)c(-c2ccc(O)cc2)oc2cc(O)cc(O)c12 | Active | inactive
27 | CC1=C2C[C@@H](C(C)(C)O[C@@H]3O[C@H](CO)[C@@H](O)[C@H](O)[C@H]3O)CC[C@@]2(C)CCC1=O | inactive | inactive
28 | COc1cc(/C=C/C(=O)NCCc2ccc(O)cc2)ccc1O | inactive | Active
29 | CC(=O)/C=C\[C@@H]1[C@@H](C)C[C@@H](O[C@@H]2O[C@H](CO)[C@@H](O)[C@H](O)[C@H]2O)CC1(C)C | inactive | inactive
30 | CC(=O)/C=C/[C@H]1[C@H](C)C[C@H](O)CC1(C)C | inactive | inactive
31 | O=c1c(O)c(-c2ccc(O)cc2)oc2cc(O)cc(O)c12 | Active | Active
32 | Oc1ccc([C@H]2Oc3c(O)c(O)c(O)c(O)c3C[C@@H]2O)cc1O | – | Active
